Here are results for 26 compounds from patent publication US9802937B2, “Substituted pyrazolo{4,3-D}pyrimidines as kinase inhibitors” (ORIGENIS GMBH, priority 2011, dated 2017).

The target in one experiment is T1, SYK kinase (Homo sapiens, UniProt P43405).
T1 construct: purchased Invitrogen, Carlsbad
Nature of the experiment: SYK Assay (OMNIA KINASE ASSAY, SOX peptide fluorescence). It is filed as biochemical. To be noted: apparent Ki calculated from the IC50 using the Cheng-Prusoff equation; 1 mM ATP, 30° C.; read-out: SYK Activities: Ki. The method, boiled down:
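Continuous Omnia assay: SYK phosphorylation of SOX-labelled Tyr 7 peptide (10 µM) with 1 mM ATP and 0.2 mM DTT at 30 °C. Fluorescence (ex 360/em 485 nm) read every 30 s for 30 min. Reaction velocity versus inhibitor concentration gives IC50, converted to apparent Ki by Cheng-Prusoff.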

Another experiment concerns the target LRRK2 (Homo sapiens, UniProt Q5S007). Nature of the experiment: LRRK2-LRRK2 G2019S-Assay (LanthaScreen Eu Kinase Binding Assay). To be noted: 5 nM LRRK2 or their mutants, 10 nM tracer 236, RT 1 h; read-out: LRRK2 Activities: IC50. The method, boiled down:
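TR-FRET tracer-displacement binding assay with 5 nM LRRK2 or mutant, 2 nM Eu-anti-GST antibody and 10 nM tracer 236 in kinase buffer A. Incubated 1 h at RT; 665/615 nm emission ratio read (ex 340 nm). IC50 from variable-slope sigmoidal fit.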

The target of a further experiment is MYLK (Homo sapiens, UniProt Q15746). Nature of the experiment: MYLK Assay (LanthaScreen Eu Kinase Binding Assay). To be noted: 5 nM MYLK, 30 nM tracer 236, RT 1 h; read-out: MYLK Activities: IC50. The method, then: In the assay LanthaScreen™ Eu Kinase Binding Assay by Invitrogen Corporation (Carlsbad) the effect of invention of a compound on the phosphorylation is determined by measurement of fluorescence intensity emission ratio based on the binding and displacement of a proprietary, Alexa Fluor® 647-labeled, ATP-competitive kinase inhibitor scaffold (kinase tracer) to the kinase of interest as described above.
To the wells of an 384 well small volume plate (Greiner, Frickenhausen) are added (i) the compound under test in 5% is DMSO/distilled water (5 μl), (ii) 5 μl of the kinase antibody mixture resulting in a final concentration 5 nM MYLK, 2 nM EU-Anti-GST antibody in 1× kinase buffer A. The reaction was started with addition of (iii) 5 μl resulting in a final concentration of 30 nM tracer 236. The assay plate was incubated at RT for 1 h and fluorescence intensity readings were collected using a TECAN M1000 at two wavelengths of λex 340/λem 615 nm and λex 340/λem 665 nm with a delay time of 100 μs and an integration time of 200 μs after 60 minutes. The emission ratio was calculated by division of the acceptor/tracer emission ([…]) by the antibody/donor emission ([…]). The inhibitor concentration was plotted versus the emission ratio to determine the IC50 using XLFit 5.0 (IDBS, Guildford) to fit to a sigmoidal dose response curve with a variable slope.
For orientation: In TR-FRET formats the signal depends on donor and acceptor labels being close together.

Each structure is given as a SMILES string.

Chain of MYLK (Q15746 whole entry): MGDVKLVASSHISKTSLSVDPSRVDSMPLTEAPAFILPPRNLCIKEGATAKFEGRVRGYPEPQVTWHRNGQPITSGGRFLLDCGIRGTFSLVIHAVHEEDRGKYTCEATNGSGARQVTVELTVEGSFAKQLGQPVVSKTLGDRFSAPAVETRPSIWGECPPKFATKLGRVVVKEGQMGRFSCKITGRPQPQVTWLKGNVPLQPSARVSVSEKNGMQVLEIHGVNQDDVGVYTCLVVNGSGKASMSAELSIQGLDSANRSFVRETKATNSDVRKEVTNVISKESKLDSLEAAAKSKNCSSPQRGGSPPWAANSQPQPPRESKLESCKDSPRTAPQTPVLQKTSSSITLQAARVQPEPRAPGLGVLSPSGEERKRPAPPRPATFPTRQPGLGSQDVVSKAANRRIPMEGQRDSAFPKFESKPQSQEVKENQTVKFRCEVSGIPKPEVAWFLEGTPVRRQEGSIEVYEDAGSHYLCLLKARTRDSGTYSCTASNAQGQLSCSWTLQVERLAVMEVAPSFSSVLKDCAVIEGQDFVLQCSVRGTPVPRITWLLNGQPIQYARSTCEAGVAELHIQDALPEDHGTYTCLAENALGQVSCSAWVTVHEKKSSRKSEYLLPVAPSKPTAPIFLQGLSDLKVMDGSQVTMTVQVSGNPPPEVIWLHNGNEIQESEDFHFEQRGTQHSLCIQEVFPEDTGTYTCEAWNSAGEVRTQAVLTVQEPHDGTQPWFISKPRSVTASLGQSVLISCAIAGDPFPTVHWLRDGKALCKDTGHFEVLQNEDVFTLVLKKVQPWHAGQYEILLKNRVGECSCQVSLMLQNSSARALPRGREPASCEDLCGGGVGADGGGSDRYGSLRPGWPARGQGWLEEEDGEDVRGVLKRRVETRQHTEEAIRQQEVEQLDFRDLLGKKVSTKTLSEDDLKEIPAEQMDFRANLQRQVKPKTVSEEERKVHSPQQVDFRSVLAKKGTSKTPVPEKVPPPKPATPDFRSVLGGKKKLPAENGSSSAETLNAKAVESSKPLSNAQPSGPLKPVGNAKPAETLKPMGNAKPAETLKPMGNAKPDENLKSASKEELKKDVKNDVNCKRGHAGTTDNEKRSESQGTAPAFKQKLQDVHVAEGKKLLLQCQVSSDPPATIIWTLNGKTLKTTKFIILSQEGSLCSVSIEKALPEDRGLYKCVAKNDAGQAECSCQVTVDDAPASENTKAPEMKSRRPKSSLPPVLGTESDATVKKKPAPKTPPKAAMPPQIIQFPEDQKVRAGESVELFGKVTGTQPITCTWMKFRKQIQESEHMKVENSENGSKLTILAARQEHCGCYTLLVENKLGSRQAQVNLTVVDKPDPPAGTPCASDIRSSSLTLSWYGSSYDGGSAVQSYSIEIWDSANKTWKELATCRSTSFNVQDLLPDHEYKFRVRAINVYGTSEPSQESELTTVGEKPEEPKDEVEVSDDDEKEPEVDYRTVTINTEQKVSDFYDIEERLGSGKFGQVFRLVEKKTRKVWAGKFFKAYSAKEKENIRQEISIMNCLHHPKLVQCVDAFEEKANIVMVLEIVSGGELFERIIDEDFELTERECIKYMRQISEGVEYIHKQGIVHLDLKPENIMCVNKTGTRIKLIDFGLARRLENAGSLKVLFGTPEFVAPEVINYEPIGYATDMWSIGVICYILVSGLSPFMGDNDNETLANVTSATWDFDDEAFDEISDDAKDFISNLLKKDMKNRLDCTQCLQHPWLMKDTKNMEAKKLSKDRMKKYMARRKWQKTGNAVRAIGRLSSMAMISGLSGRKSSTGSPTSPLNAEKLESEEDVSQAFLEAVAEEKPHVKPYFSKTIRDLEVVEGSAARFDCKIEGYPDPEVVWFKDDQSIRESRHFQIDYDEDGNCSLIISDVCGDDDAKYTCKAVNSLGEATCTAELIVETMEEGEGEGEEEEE
Chain of LRRK2 (Q5S007 970-2527 limits assumed): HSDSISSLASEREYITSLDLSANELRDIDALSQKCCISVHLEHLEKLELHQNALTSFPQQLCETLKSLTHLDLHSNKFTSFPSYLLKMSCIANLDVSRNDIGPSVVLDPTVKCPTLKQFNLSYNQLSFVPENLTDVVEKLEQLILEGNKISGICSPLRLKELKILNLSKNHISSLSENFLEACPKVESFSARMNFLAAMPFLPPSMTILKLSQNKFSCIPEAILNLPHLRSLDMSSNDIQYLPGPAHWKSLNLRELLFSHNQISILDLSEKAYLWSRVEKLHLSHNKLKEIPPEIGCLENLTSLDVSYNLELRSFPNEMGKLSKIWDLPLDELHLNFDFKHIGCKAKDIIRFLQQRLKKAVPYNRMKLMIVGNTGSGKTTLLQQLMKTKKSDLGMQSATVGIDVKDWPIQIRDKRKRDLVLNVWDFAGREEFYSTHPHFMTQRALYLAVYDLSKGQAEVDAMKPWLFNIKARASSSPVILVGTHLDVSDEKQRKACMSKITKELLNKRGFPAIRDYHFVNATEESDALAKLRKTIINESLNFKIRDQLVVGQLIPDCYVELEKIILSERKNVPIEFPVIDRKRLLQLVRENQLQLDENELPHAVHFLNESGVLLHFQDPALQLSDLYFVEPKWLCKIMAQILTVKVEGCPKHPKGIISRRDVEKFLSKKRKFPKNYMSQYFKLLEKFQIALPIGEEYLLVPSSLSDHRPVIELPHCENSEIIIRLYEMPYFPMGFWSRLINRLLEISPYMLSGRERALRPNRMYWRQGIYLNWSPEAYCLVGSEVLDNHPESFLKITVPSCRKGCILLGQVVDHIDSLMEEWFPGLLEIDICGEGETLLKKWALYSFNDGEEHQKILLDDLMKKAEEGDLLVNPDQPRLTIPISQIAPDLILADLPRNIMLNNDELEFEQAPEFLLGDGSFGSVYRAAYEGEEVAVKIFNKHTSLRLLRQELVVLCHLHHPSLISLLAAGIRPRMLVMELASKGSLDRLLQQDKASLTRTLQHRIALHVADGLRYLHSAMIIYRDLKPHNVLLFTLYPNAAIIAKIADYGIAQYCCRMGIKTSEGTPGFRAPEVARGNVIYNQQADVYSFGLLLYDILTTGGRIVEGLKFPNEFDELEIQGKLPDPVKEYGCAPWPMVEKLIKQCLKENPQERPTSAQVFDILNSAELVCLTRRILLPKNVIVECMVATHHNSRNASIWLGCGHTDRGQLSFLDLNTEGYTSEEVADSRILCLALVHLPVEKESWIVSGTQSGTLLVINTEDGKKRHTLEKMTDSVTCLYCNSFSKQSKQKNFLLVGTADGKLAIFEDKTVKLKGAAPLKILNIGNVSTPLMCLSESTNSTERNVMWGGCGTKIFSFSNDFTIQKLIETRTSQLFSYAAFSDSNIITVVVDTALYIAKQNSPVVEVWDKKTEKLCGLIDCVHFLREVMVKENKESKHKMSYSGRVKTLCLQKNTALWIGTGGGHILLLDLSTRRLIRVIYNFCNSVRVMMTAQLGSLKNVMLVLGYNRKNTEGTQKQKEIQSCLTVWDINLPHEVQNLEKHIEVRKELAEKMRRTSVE

Regarding `NC(=O)c1cccc(Nc2nc(-c3ccccc3)nc3cn[nH]c23)c1` [Example #5, 3-((5-phenyl-1H-pyrazolo[4,3-d]pyrimidin-7-yl)amino)benzamide], on SYK kinase, the Ki is under 10 nM. Besides, the IC50 (usually the concentration that gives 50% inhibition) at LRRK2 was 100 to 1000 nM; on MYLK it was under 5000 nM.

For the compound `COc1cccc(Nc2nc(-c3ccccc3)nc3cn[nH]c23)c1` [Example #8, N-(3-methoxyphenyl)-5-phenyl-1H-pyrazolo[4,3-d]pyrimidin-7-amine], at SYK kinase, the Ki is 10 to 100 nM. Further, the IC50 on MYLK was under 5000 nM.

Take `CN1CCN(c2ccc(Nc3nc(-c4ccncc4)nc4cn[nH]c34)cc2)CC1` [Example #20, N-(4-(4-methylpiperazin-1-yl)phenyl)-5-(pyridin-4-yl)-1H-pyrazolo[4,3-d]pyrimidin-7-amine]: at SYK kinase, the Ki is under 10 nM. Also, the figures for the half-inhibitory concentration (IC50) on LRRK2 and at MYLK were 100 to 1000 nM and under 5000 nM, respectively.

With `O=C1COc2ccc(Nc3nc(-c4ccncc4)nc4cn[nH]c34)cc2N1` [Example #21, 6-((5-(pyridin-4-yl)-1H-pyrazolo[4,3-d]pyrimidin-7-yl)amino)-2H-benzo[b][1,4]oxazin-3(4H)-one], the Ki at SYK kinase is 100 to 1000 nM. Also, the results for the IC50 on LRRK2 and at MYLK were 100 to 1000 nM and under 5000 nM, respectively.

For `COc1ccc(-c2nc(Nc3ccc(N4CCN(C)CC4)cc3)c3[nH]ncc3n2)cc1OC` [Example #34, 5-(3,4-dimethoxyphenyl)-N-(4-(4-methylpiperazin-1-yl)phenyl)-1H-pyrazolo[4,3-d]pyrimidin-7-amine], the Ki at SYK kinase was under 10 nM. Further, the concentration for half-maximal inhibition (IC50) at LRRK2 was 100 to 1000 nM; at MYLK it was under 5000 nM.

Regarding `CN1CCN(c2ccc(Nc3nc(-c4ccccc4)nc4cn[nH]c34)cc2)CC1` [Example #35, N-(4-(4-methylpiperazin-1-yl)phenyl)-5-phenyl-1H-pyrazolo[4,3-d]pyrimidin-7-amine], the Ki at SYK kinase is under 10 nM. The IC50 on LRRK2 was 100 to 1000 nM; at MYLK it was under 5000 nM.

Turning to `c1cc(Nc2nc(-c3cc[nH]n3)nc3cn[nH]c23)n[nH]1` [Example #45, N,5-di(1H-pyrazol-3-yl)-1H-pyrazolo[4,3-d]pyrimidin-7-amine], the Ki on SYK kinase is 100 to 1000 nM. Besides, the concentration for half-maximal inhibition (IC50) at MYLK is under 5000 nM.

Take `CN1CCN(c2ccc(Nc3nc(-c4ccc(N5CCCC5)nc4)nc4cn[nH]c34)cc2)CC1` [Example #46, N-(4-(4-methylpiperazin-1-yl)phenyl)-5-(6-(pyrrolidin-1-yl)pyridin-3-yl)-1H-pyrazolo[4,3-d]pyrimidin-7-amine]: on SYK kinase, the Ki is under 10 nM. In addition, the IC50 on LRRK2 is 10 to 100 nM; on MYLK, under 5000 nM.

`c1ccc(-c2nc(Nc3cc(C4CC4)[nH]n3)c3[nH]ncc3n2)cc1` [Example #57, N-(5-cyclopropyl-1H-pyrazol-3-yl)-5-phenyl-1H-pyrazolo[4,3-d]pyrimidin-7-amine]: the Ki at SYK kinase was 10 to 100 nM. For the same compound, at MYLK, the IC50 was under 5000 nM.

For `COc1ccc(-c2nc(Nc3ccc(OC)c(OC)c3)c3[nH]ncc3n2)cc1` [Example #58, N-(3,4-dimethoxyphenyl)-5-(4-methoxyphenyl)-1H-pyrazolo[4,3-d]pyrimidin-7-amine], on SYK kinase, the Ki was under 10 nM. Further, the half-inhibitory concentration (IC50) on LRRK2 is 100 to 1000 nM; on MYLK, under 5000 nM.

Regarding `COc1cccc(-c2nc(Nc3ccc(N4CCN(C)CC4)cc3)c3[nH]ncc3n2)c1` [Example #62, 5-(3-methoxyphenyl)-N-(4-(4-methylpiperazin-1-yl)phenyl)-1H-pyrazolo[4,3-d]pyrimidin-7-amine], at SYK kinase, the Ki was under 10 nM. The IC50 was 10 to 100 nM on LRRK2 and under 5000 nM on MYLK.

For the compound `COc1ccc(Nc2nc(-c3cccs3)nc3cn[nH]c23)cc1OC` [Example #68, N-(3,4-dimethoxyphenyl)-5-(thiophen-2-yl)-1H-pyrazolo[4,3-d]pyrimidin-7-amine], the Ki at SYK kinase is under 10 nM. The IC50 is 100 to 1000 nM at LRRK2 and under 5000 nM at MYLK.

As to `CN1CCN(c2ccc(Nc3nc(-c4cccs4)nc4cn[nH]c34)cc2)CC1` [Example #70, N-(4-(4-methylpiperazin-1-yl)phenyl)-5-(thiophen-2-yl)-1H-pyrazolo[4,3-d]pyrimidin-7-amine], at SYK kinase, the Ki was under 10 nM. In addition, the results for the half-inhibitory concentration (IC50) at LRRK2 and on MYLK were 10 to 100 nM and under 5000 nM, respectively.

With `CN1CCN(c2ccc(Nc3nc(-c4ccsc4)nc4cn[nH]c34)cc2)CC1` [Example #74, N-(4-(4-methylpiperazin-1-yl)phenyl)-5-(thiophen-3-yl)-1H-pyrazolo[4,3-d]pyrimidin-7-amine], on SYK kinase, the Ki is under 10 nM. Also, the IC50 was 100 to 1000 nM on LRRK2 and under 5000 nM on MYLK.

Take `Oc1cccc(Nc2nc(-c3cccs3)nc3cn[nH]c23)c1` [Example #83, 3-((5-(thiophen-2-yl)-1H-pyrazolo[4,3-d]pyrimidin-7-yl)amino)phenol]: the Ki at SYK kinase is 10 to 100 nM. Also, the IC50 is 100 to 1000 nM at LRRK2 and under 5000 nM on MYLK.

For `c1csc(-c2nc(Nc3ccc4c(c3)NCCO4)c3[nH]ncc3n2)c1` [Example #91, N-(5-(thiophen-2-yl)-1H-pyrazolo[4,3-d]pyrimidin-7-yl)-3,4-dihydro-2H-benzo[b][1,4]oxazin-6-amine], the Ki on SYK kinase was under 10 nM. For the same compound, the IC50 was 10 to 100 nM on LRRK2 and under 5000 nM at MYLK.

For the compound `COc1ccc(-c2nc(Nc3ccc(C(=O)N4CCCC4)cc3)c3[nH]ncc3n2)cc1` [Example #160, (4-((5-(4-methoxyphenyl)-1H-pyrazolo[4,3-d]pyrimidin-7-yl)amino)phenyl)(pyrrolidin-1-yl)methanone], the Ki at SYK kinase was under 10 nM. The IC50 on MYLK was under 5000 nM.

For the compound `CN1CCN(c2ccc(Nc3nc(-c4cc(C(=O)O)cs4)nc4cn[nH]c34)cc2)CC1` [Example #175, 5-(7-((4-(4-methylpiperazin-1-yl)phenyl)amino)-1H-pyrazolo[4,3-d]pyrimidin-5-yl)thiophene-3-carboxylic acid], the Ki at SYK kinase was under 10 nM. Besides, the IC50 on MYLK was under 5000 nM.

Regarding `CN1CCN(c2ccc(Nc3nc(-c4ccc(C(=O)O)cc4)nc4cn[nH]c34)cc2)CC1` [Example #241, 4-(7-((4-(4-methylpiperazin-1-yl)phenyl)amino)-1H-pyrazolo[4,3-d]pyrimidin-5-yl)benzoic acid], on SYK kinase, the Ki was under 10 nM. Further, the IC50 at MYLK is under 5000 nM.

Turning to `Cc1nc2cc(Nc3nc(-c4cccc(S(C)(=O)=O)c4)nc4cn[nH]c34)ccc2[nH]1` [Example #252, N-(2-methyl-1H-benzo[d]imidazol-5-yl)-5-(3-(methylsulfonyl)phenyl)-1H-pyrazolo[4,3-d]pyrimidin-7-amine], on SYK kinase, the Ki is 10 to 100 nM. Further, the 50% inhibitory concentration (IC50) at MYLK is under 5000 nM.

Regarding `O=S(=O)(CCO)c1cccc(Nc2nc(-c3cccs3)nc3cn[nH]c23)c1` [Example #255, 2-((3-((5-(thiophen-2-yl)-1H-pyrazolo[4,3-d]pyrimidin-7-yl)amino)phenyl)sulfonyl)ethan-1-ol], at SYK kinase, the Ki is 100 to 1000 nM. The IC50 at MYLK is under 5000 nM.

`CS(=O)(=O)c1cccc(Nc2nc(-c3ccccc3F)nc3cn[nH]c23)c1` [Example #276, 5-(2-fluorophenyl)-N-(3-(methylsulfonyl)phenyl)-1H-pyrazolo[4,3-d]pyrimidin-7-amine]: on SYK kinase, the Ki is 10 to 100 nM. For the same compound, the IC50 on MYLK was under 5000 nM.

With `CS(=O)(=O)c1ccccc1Nc1nc(-c2ccccc2F)nc2cn[nH]c12` [Example #277, 5-(2-fluorophenyl)-N-(2-(methylsulfonyl)phenyl)-1H-pyrazolo[4,3-d]pyrimidin-7-amine], the Ki on SYK kinase is 100 to 1000 nM. The half-maximal inhibitory concentration (IC50) at MYLK was under 5000 nM.

For the compound `Fc1ccc(-c2nc(Nc3ccc(N4CCOCC4)cc3)c3[nH]ncc3n2)c(F)c1` [Example #286, 5-(2,4-difluorophenyl)-N-(4-morpholinophenyl)-1H-pyrazolo[4,3-d]pyrimidin-7-amine], the Ki on SYK kinase is 10 to 100 nM. The IC50 at MYLK is under 5000 nM.

In the case of `O=C1COc2ccc(-c3nc(Nc4ccc(N5CCOCC5)cc4)c4[nH]ncc4n3)cc2N1` [Example #288, 6-(7-((4-morpholinophenyl)amino)-1H-pyrazolo[4,3-d]pyrimidin-5-yl)-2H-benzo[b][1,4]oxazin-3(4H)-one], the Ki on SYK kinase was 10 to 100 nM. Moreover, the IC50 on MYLK was under 5000 nM.

For `Cc1nc2cc(Nc3nc(-c4ccc5c(c4)NC(=O)CO5)nc4cn[nH]c34)ccc2[nH]1` [Example #289, 6-(7-((2-methyl-1H-benzo[d]imidazol-5-yl)amino)-1H-pyrazolo[4,3-d]pyrimidin-5-yl)-2H-benzo[b][1,4]oxazin-3(4H)-one], the Ki on SYK kinase was 10 to 100 nM. For the same compound, the half-maximal inhibitory concentration (IC50) on MYLK was under 5000 nM.
